{
  "source": "paper PMC5577450",
  "about": "“An ancient FMRFamide-related peptide–receptor pair induces defence behaviour in a brachiopod larva” (Open Biology, 2017)",
  "key": {"[1]": {"tested_on": "Terebratalia transversa larvae", "test": "Behavioural assay: full contraction / defence stance of larvae exposed to synthetic peptides", "format": "in vivo", "settings": "for contraction reaction of larvae (in words): at 50 µmol l^−1 (maximum concentration cutoff); for necessary concentration to induce defense stance (full contraction): > 50 stands for 'no contraction at 50 µM'", "description": "The reaction of larvae to synthetic peptides (GenScript) that were predicted from the prepropeptide sequence were tested and compared with the reactions to peptides with non-native modifications. Freely swimming larvae were exposed to different concentrations of peptides in 4-well and 6-well plates (1 ml and 5 ml total volume per well, respectively), and their reactions were observed under a stereomicroscope. To determine the efficiency of the native and modified peptides, the larvae were tested for the necessary minimum concentration at which they fully contracted and spread their chaetae, using 30–100 larvae in each test. To get an estimation of the peptide concentration that was necessary to induce a complete contraction, the larvae were initially exposed to 50 nmol l^−1 of the respective peptide and the concentration was then increased stepwise until the larvae fully contracted or a concentration of 50 µmol l^−1 was reached as an upper cutoff. […] To test the influence of the peptides on the vertical distribution of larvae in a water column, freely swimming larvae (50–100 per treatment) were exposed to peptides in transparent 4.5 ml cuvettes. About 60 s after addition of the peptides, the larvae were recorded with a digital camera (DMK 31AU03 camera, The Imaging Source) in a darkened box with artificial top-illumination. All experiments were repeated at least once with a different batch of larvae from another fertilization and the outcome was averaged. Control animals were exposed to DMSO only."}, "[2]": {"tested_on": "T. transversa FLRFamide receptor", "sequence (as listed by the source)": "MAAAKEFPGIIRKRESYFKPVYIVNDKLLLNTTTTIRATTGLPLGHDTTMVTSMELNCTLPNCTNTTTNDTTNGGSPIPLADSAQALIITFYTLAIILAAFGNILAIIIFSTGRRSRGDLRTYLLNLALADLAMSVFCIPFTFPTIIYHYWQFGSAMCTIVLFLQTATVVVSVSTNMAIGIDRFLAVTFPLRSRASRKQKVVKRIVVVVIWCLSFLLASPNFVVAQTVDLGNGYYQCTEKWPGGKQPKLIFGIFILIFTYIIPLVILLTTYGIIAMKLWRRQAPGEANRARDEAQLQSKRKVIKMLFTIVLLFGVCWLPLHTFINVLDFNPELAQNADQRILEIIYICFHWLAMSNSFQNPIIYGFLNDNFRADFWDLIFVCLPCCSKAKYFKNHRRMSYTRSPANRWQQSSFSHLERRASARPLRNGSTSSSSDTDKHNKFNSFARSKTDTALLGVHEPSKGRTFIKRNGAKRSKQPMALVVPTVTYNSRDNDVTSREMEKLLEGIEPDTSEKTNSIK", "test": "Receptor deorphanization: luminescence response of transfected CHO-K1 cells", "format": "cell-based, Terebratalia transversa", "settings": "fixed peptide concentration 1 µmol l^−1 (figure 4a)", "text": "For the receptor deorphanization, the procedure was used as described by Bauknecht & Jékely: full-length open reading frames of the receptor candidate sequences were amplified by PCR from cDNA of mixed larval stages. The forward primers included a 5′ attachment consisting of a spacer, an EcoR1 or BamH1 restriction site and a Kozak sequence and the reverse primers included a 5′ attachment consisting of a spacer and a Not1 restriction site (see the electronic supplementary material for primer sequences). […] The luminescence response of the transfected cells was measured in a plate reader (BioTek Synergy Mx or Synergy H4, BioTek, Winooski, USA) over 45 s after addition of the neuropeptides. […] Dose–response curves were calculated using PRISM 6 (GraphPad, La Jolla, USA) and normalized against the upper plateau values (100% activation).\nFigure 4. Luminescence response of T. transversa FLRFamide receptor expressing CHO-K1 cells to different peptides. (a) Relative luminescence of T. transversa FLRFamide receptor expressing cells after exposure to different peptides with a fixed concentration of 1 µmol l^−1. […] Luminescence values are given relative to maximum luminescence (max = 1). RLU relative luminescence."}, "[3]": {"tested_on": "late chaetous larvae of Novocrania anomala", "test": "Behavioural test of the orthologue peptide for a defence reaction", "format": "in vivo", "settings": "no defence reaction even above this concentration"}, "[4]": {"tested_on": "late chaetous larvae of P. dumerilii", "test": "Behavioural test of the orthologue peptide for a defence reaction", "format": "in vivo, Platynereis dumerilii", "settings": "no defence reaction even above this concentration"}},
  "data": [
    {"substance": "DFLRLamide [modified DFLRFamide with C-terminal leucine]", "values": [
      {"measurement": "contraction reaction of larvae (in words)", "setting": "[1]", "value": "very weak contraction"},
      {"measurement": "luminescence response of FLRFamide receptor expressing CHO-K1 cells (in words)", "setting": "[2]", "value": "barely higher than the negative control"}
    ]},
    {"substance": "AFLRLamide [modified AFLRFamide with C-terminal leucine]", "values": [
      {"measurement": "contraction reaction of larvae (in words)", "setting": "[1]", "value": "no reaction at all"}
    ]},
    {"substance": "YMRFamide [orthologue of AFLRFamide/DFLRFamide]", "values": [
      {"measurement": "necessary concentration to induce defense stance (full contraction)", "setting": "[1]; batch 1", "value": 10, "unit": "µM"},
      {"measurement": "necessary concentration to induce defense stance (full contraction)", "setting": "[1]; batch 2", "value": 15, "unit": "µM"},
      {"measurement": "concentration inducing a defence reaction", "setting": "[3]", "value": "above 50 µmol l^−1"}
    ]},
    {"substance": "FMRFamide [orthologue of AFLRFamide/DFLRFamide in P. dumerilii]", "values": [
      {"measurement": "concentration inducing a defence reaction", "setting": "[4]", "value": "above 50 µmol l^−1"}
    ]},
    {"substance": "AFLRWamide [modified AFLRFamide with amidated C-terminal tryptophan]", "values": [
      {"measurement": "necessary concentration to induce defense stance (full contraction)", "setting": "[1]; batch 1", "value": 20, "unit": "µM"},
      {"measurement": "necessary concentration to induce defense stance (full contraction)", "setting": "[1]; batch 2", "value": 20, "unit": "µM"},
      {"measurement": "concentration triggering full contraction / defence stance (minimum necessary concentration)", "setting": "[1]; cutoff 50 µmol l^−1", "value": 20, "unit": "µmol/L"},
      {"measurement": "reduction of effectiveness on changing the amidated C-terminal phenylalanine to an amidated tryptophan", "setting": "[1]; relative to the corresponding Famide peptide", "value": "about 10 fold"}
    ]}
  ]
}
